# Legend:
# [1] = tested on: patients with comorbid bipolar disorders; settings: literature; cited from earlier work
# Rats (Wistar) = assay: Forced swim test in rats; type: in vivo, rat; settings: 0.01, 0.1 and 1 mg/kg s.c. 30 minutes before the test, versus vehicle
# Procedure: The method, which detects antidepressant activity, follows that described by Porsolt et al (Eur. J. Pharmacol., 47, 379-391, 1978). Rats forced to swim in a situation from which they cannot escape eventually become immobile. Antidepressants decrease the duration of immobility.
# Nalmefene was tested as the sole active compound. Rats (Wistar) were individually placed in a cylinder (height=40 cm; diameter=20 cm) containing 13 cm water (25° C.) for 15 minutes on the first day of the experiment (Session 1) and were then placed back in the water 24 hours later for a 5 minute test (Session 2). The duration of immobility during the 5 minute test was measured. 6 rats were studied per group. The test was performed blind. Nalmefene was evaluated at 3 doses (0.01, 0.1 and 1 mg/kg), administered s.c. 30 minutes before the test, and compared with a vehicle control group.
# Data with the test substance were analysed by comparing treated groups with vehicle control using one-way ANOVA followed by post-hoc Dunnett's tests. Data with the reference substance were analysed using unpaired Student's t tests.
# [2] = tested on: patients with alcohol dependence; assay: Study 12013A: clinical efficacy on the reduction of alcohol consumption (HDD, TAC); type: in vivo, human; settings: for HDD / TAC: patients with a mood disorder at baseline according to MINI assessment
# Description: (§1) The diagnosis of alcohol dependence was based on the DSM-IV-TR criteria. For this purpose, the investigator interviewed the patient in a structured way by using the Mini International Neuropsychiatric Interview (MINI) standardized interview (Lecrubier et al. The Mini International Neuropsychiatric Interview (M.I.N.I.). A short diagnostic structured interview: Reliability and validity according to the CIDI. European Psychiat. (1997), 12: 224-31). The M.I.N.I. is designed as a brief structured interview for the major Axis I psychiatric disorders in DSM-IV. Its use permits a standardised assessment of the diagnostic criteria. The M.I.N.I. interview was used at the screening visit. Clinicians used it after a training session. The M.I.N.I. approach was used to select patients with a mood disorder at baseline in Example 3.
# (§2) Another approach to identify patients with a mood disorder is by defining mood disorder at baseline as any ongoing medical history coded by the Medical Dictionary for Regulatory Activities (MedDRA) Preferred Term as ‘Affective Disorder’, ‘Bipolar Disorder’, ‘Depressed Mood’, ‘Depression’, ‘Dysthymic Disorder’, ‘Hypomania’, ‘Major Depression’, ‘Mood Disorder Due To A General Medical Condition’ and/or ‘Seasonal Affective Disorder’. In examples 1 and 2 below patients classified with a mood disorder at baseline was selected based on said MedDRA terms.
# The efficacy of nalmefene on the reduction of alcohol consumption in patients with alcohol dependence (DSM-IV) was evaluated in a multi-national, multi-site, randomised, double blind, two parallel group, placebo controlled 1 year safety study (Study 12013A). The efficacy was evaluated over 24 weeks of treatment. The study included outpatients, aged ≧18 years, with a primary diagnosis of alcohol dependence. […] Patients with psychiatric co-morbidity (that is, patients who used stable doses of antipsychotics and/or certain antidepressants) were also included unless the treatment of the psychiatric comorbidity had to take priority over treatment of the drinking problem, or was likely to interfere with study treatment or impairs treatment compliance.
# The study included 639 patients, 482 of whom were treated with nalmefene 18 mg in an as-needed dosing regimen. A motivational and adherence enhancing intervention was administered to all the patients to support the patients in changing their behavior and to enhance adherence to treatment.
# The efficacy of nalmefene on the reduction of alcohol consumption was measured using two co-primary endpoints: the change from baseline to Month 6 in the monthly number of heavy drinking days (HDDs) and the change from baseline to Month 6 in the average daily total alcohol consumption (TAC). A HDD was defined as a day with a consumption ≧60 g alcohol for men and ≧40 g for women.
# (§3) Table 10 below outlines drinking variables and POMS TMD score patients from the 12013A study with a mood disorder at baseline who were classified based on MINI standardized interviews.
# κ receptor = κ receptor (Homo sapiens, UniProt P41145); settings: in vitro; cited from earlier work
# μ receptor = μ receptor (Homo sapiens, UniProt P35372); settings: in vitro; cited from earlier work
# Mice (NMRI) [3] = assay: Marble burying test in mouse; type: in vivo; settings: for Number of marbles covered by sawdust, Mean ± SEM: 30 minute test, 25 marbles
# Description: The method, which detects anxiolytic/tranquillizing activity, follows that described by Broekkamp et al (Eur. J. Pharmacol., 126, 223-229, 1986). Mice exposed to novel objects (marbles) will bury them in the sawdust floor covering. Anxiolytics decrease the number of marbles buried at non-sedative doses.
# Mice (NMRI) were individually placed in transparent plastic cages (33×21×18 cm) with 5 cm of sawdust on the floor and 25 marbles grouped in the centre of the cage. The cage was covered with an inverted plastic cage. Each test cage, together with the marbles, was impregnated with mouse odor before-hand by leaving 10 mice in the cage for 15 minutes. These mice then played no further role in the experiment.
# Nalmefene was tested in the marble burying model as the sole active compound. The number of marbles covered by sawdust (⅔ or more) was counted at the end of a 30 minute test. 12 mice were studied per group. The test was performed blind. Nalmefene was evaluated at 3 doses (0.01, 0.1 and 1 mg/kg), administered s.c. 30 minutes before the test, and compared with a vehicle control group. Clobazam (8 mg/kg s.c.), administered under the same experimental conditions, was used as reference substance. The experiment therefore included 8 groups.
# Data with Nalmefene were analysed by comparing treated groups with vehicle control using Kruskall-Wallis test followed by Mann-Whitney U tests. Data with the reference substance were analysed using Mann-Whitney U tests. Due to the number of groups, the study was conducted over 2 separate sub-experiments, each sub-experiment including 6 mice per group.
# [4] = tested on: patients with alcohol dependence; assay: Study 12013A: clinical efficacy measured by POMS score; type: in vivo, human; settings: for POMS TMD score: patients with a mood disorder at baseline according to MINI assessment
# Description: The term “POMS” is an abbreviation of “profile of mood states” and refers to a selfreport inventory scale developed to assess the effect of e.g. new medication on mood states and mood changes. The scale measures six domains: Tension-Anxiety, Depression-Rejection, Anger-Hostility, Vigour-Activity, Fatigue-Inertia, and Confusion-Bewilderment. A total mood disturbance (TMD) score can be calculated. In general, a lower POMS score indicates a better mood state than a higher score except for vigour-activity, for which a higher POMS score indicates a better mood state. The scale has been described e.g. by McNair et al., Profile of mood states. San Diego, Calif.: Educational and Industrial Testing Service and by Nyenhios and Yamamoto, J. Clin. Psychology, (1999), Vol. 55(1): 79-86.
# as §1, §2
# Assessment of POMs scores in Study 12013A was used to evaluate the effect of nalmefene on mood states and mood changes throughout the study. The change in POMS scores from baseline are illustrated in FIGS. 3-9.
# In general, a lower POMS score indicates a better mood state than a higher score except for vigour, illustrated in FIGS. 7a and 7b, wherein a higher POMS score indicates a better mood state.
# as §3
# δ receptor = δ receptor (Homo sapiens, UniProt P41143); settings: in vitro; cited from earlier work
# Mice (NMRI) [5] = assay: Forced swim test in mouse; type: in vivo; settings: for Duration of immobility, Mean ± SEM: last 4 of 6 minutes
# Procedure: The method, which detects antidepressant activity, follows that described by Porsolt et al (Arch. Int. Pharmacodyn., 229, 327-336, 1977). Mice forced to swim in a situation from which they cannot escape eventually become immobile. Antidepressants decrease the duration of immobility.
# Nalmefene was tested as the sole active compound. Mice (NMRI) were individually placed in a cylinder (height=24 em; diameter=13 em) containing 10 cm water (22° C.) from which they cannot escape. The mice were placed in the water for 6 minutes and the duration of immobility during the last 4 minutes was measured. The latency to the first bout of immobility was also recorded starting from the beginning of the test.
# 10 mice were studied per group. The test was performed blind. Each test substance was evaluated at 3 doses (0.1, 1 and 10 mg/kg), administered s.c. 30 minutes before the test, and compared with a vehicle control group.
# Imipramine (32 mg/kg s.c.), administered under the same experimental conditions, was used as reference substance. The experiment therefore included 8 groups.
# Data with the test substance were analysed by comparing treated groups with vehicle control using one-way ANOVA followed by post-hoc Dunnett's tests. Data with the reference substance were analysed using unpaired Student's t tests. Due to the number of groups, the study was conducted over 2 separate sub-experiments, each subexperiment including 5 mice per group.
# [6] = 1 year, nalmefene 18 mg as-needed
# [7] = 0.01 mg/kg s.c. 30 minutes before the test
# [8] = 0.1 mg/kg s.c. 30 minutes before the test
# [9] = 1 mg/kg s.c. 30 minutes before the test
# [10] = 10 mg/kg s.c. 30 minutes before the test
# Chain of κ receptor (P41145 whole entry): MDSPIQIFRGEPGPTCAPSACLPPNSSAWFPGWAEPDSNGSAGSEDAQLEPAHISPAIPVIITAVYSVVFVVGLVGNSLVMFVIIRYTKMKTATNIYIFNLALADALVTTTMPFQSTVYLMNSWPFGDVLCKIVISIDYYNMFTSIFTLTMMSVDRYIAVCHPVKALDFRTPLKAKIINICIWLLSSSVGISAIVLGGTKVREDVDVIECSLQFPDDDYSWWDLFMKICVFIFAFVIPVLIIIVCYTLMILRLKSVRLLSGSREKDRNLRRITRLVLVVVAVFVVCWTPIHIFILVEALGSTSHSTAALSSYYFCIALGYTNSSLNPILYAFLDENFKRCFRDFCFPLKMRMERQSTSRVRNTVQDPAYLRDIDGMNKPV
# Chain of μ receptor (P35372 whole entry): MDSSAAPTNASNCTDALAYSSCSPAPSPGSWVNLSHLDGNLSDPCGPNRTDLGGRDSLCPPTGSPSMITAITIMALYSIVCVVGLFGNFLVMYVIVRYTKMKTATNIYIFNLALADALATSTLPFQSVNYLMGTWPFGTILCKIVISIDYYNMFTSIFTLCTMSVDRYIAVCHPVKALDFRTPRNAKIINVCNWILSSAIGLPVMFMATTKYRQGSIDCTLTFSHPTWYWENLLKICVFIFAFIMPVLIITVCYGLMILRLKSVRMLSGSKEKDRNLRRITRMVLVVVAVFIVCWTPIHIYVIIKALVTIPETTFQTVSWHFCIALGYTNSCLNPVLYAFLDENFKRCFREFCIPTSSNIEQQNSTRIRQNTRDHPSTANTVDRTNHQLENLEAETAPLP
# Chain of δ receptor (P41143 whole entry): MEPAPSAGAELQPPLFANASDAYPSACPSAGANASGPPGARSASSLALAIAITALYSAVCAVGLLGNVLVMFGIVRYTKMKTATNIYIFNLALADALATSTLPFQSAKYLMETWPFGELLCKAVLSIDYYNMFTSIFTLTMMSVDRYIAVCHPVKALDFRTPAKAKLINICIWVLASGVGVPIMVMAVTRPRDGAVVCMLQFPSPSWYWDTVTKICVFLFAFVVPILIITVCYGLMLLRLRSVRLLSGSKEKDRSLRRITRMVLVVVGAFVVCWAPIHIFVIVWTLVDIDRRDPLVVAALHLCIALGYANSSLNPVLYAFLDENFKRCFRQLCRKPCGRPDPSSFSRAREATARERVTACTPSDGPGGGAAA
smiles,measurement,setting,value
O=C1CCc2ccc(OCCCCN3CCN(c4cccc(Cl)c4Cl)CC3)cc2N1 [aripiprazole],efficacy on measures of alcohol use and dependence,[1],ineffective
OCCOCCN1CCN(C2=Nc3ccccc3Sc3ccccc32)CC1 [quetiapine],efficacy on measures of alcohol use and dependence,[1],ineffective
"C=C1CC[C@@]2(O)[C@H]3Cc4ccc(O)c5c4[C@@]2(CCN3CC2CC2)[C@H]1O5 [Nalmefene, 17-(cyclopropylmethyl)-4,5-alpha-epoxy-6-methylenemorphinan-3,14-diol]",duration of immobility during the 5 minute test,Rats (Wistar),No significant effect
same,HDD,[2]; [6],6.0
same,TAC,[2]; [6],20.8 g/day
same,HDD,"[2]; Baseline, N=22",16.0
same,TAC,"[2]; Baseline, N=22",80.3 g/day
same,alcohol consumption,[2]; patients with a mood disorder at baseline (MedDRA),significally reduced the alcohol consumption
same,difference between nalmefene and placebo in HDDs,"[2]; patients with a mood disorder at baseline compared with patients without, week 24, FIG. 1",more pronounced
same,difference between nalmefene and placebo in TAC,"[2]; patients with a mood disorder at baseline compared with patients without, week 24, FIG. 2",more pronounced
same,reducing TAC versus placebo,[2]; total patient group,superior to placebo
same,reducing the number of HDDs versus placebo,[2]; total patient group,superior to placebo
same,activity at the κ receptor,κ receptor,partial agonist activity
same,activity at the μ receptor,μ receptor,antagonist activity
same,"Number of marbles covered by sawdust, % compared with vehicle",Mice (NMRI) [3]; [7],−5%
same,"Number of marbles covered by sawdust, Mean ± SEM",Mice (NMRI) [3]; [7],23.5 ± 1.2
same,"Number of marbles covered by sawdust, Mean ± SEM",Mice (NMRI) [3]; [8],21.5 ± 1.2
same,"Number of marbles covered by sawdust, % compared with vehicle","Mice (NMRI) [3]; 0.1 mg/kg s.c. 30 minutes before the test, p<0.01",−13%
same,"Number of marbles covered by sawdust, % compared with vehicle","Mice (NMRI) [3]; 0.1 mg/kg s.c. 30 minutes before the test, p<0.01, listed as nalmefene",−13%
same,"Number of marbles covered by sawdust, % compared with vehicle",Mice (NMRI) [3]; [9],−10%
same,"Number of marbles covered by sawdust, Mean ± SEM",Mice (NMRI) [3]; [9],22.4 ± 1.4
same,effect on number of marbles covered by sawdust,Mice (NMRI) [3]; 0.01 or 1 mg/kg s.c.,no significant effects
same,POMS TMD score,[4]; [6],37
same,POMS TMD score,"[4]; Baseline, N=22",68
same,general mood state (POMS data overall),[4]; patients with a mood disorder,general mood state improves
same,POMS score at the end of the study versus placebo,"[4]; patients with a mood disorder at baseline, FIGS. 3b-9b",better POMS score
same,"POMS scores versus placebo: total mood disturbance, tension-anxiety, depression-rejection, anger-hostility and confusion","[4]; patients with a mood disorder at baseline, weeks 16-24, FIGS. 3b, 4b, 5b, 6b, 9b",better POMS scores
same,pattern in POMS score versus placebo,"[4]; patients without a mood disorder at baseline, FIGS. 3a-9a",no pronounced difference between nalmefene and placebo
same,activity at the δ receptor,δ receptor,antagonist activity
same,"Duration of immobility, % compared with vehicle",Mice (NMRI) [5]; [8],+6%
same,"Duration of immobility, Mean ± SEM",Mice (NMRI) [5]; [8],206 ± 7 s
same,latency to immobility,"Mice (NMRI) [5]; 1 mg/kg s.c. 30 minutes before the test, versus vehicle",did not significantly affect
same,"Duration of immobility, Mean ± SEM",Mice (NMRI) [5]; [9],140 ± 22 s
same,"Duration of immobility, % compared with vehicle","Mice (NMRI) [5]; 1 mg/kg s.c. 30 minutes before the test, p<0.05",−28%
same,"Duration of immobility, % compared with vehicle",Mice (NMRI) [5]; [10],−3%
same,"Duration of immobility, Mean ± SEM",Mice (NMRI) [5]; [10],189 ± 11 s
same,effect in forced swim test,Mice (NMRI) [5]; 0.1 or 10 mg/kg s.c.,no effects

# — patent publication US20160058753A1, “Nalmefene for Treatment of Patients with Mood Disorder” (H. LUNDBECK A/S, priority 2013, published 2016)
